According to ChEMBL document CHEMBL3046832, “Synthesis of some sulfonamides, disubstituted sulfonylureas or thioureas and some structurally related variants. A class of promising antitumor agents” (2007):

Assays:
Format in all cases: functional
[1] = system: UACC-257; assay: Cytotoxicity against Homo sapiens (human) UACC257 cells after 48 hr by SRB assay; conditions: UACC-257, 48 h
[2] = system: OVCAR-5; assay: Cytotoxicity against Homo sapiens (human) OVCAR5 cells after 48 hr by SRB assay; conditions: OVCAR-5, 48 h
[3] = system: NCI-H460; assay: Cytotoxicity against Homo sapiens (human) NCI-H460 cells assessed as cellular growth after 48 hr by Alamar blue assay; set-up: concentration or dose not given beside the values
[4] = system: SK-OV-3; assay: Cytotoxicity against Homo sapiens (human) SKOV3 cells after 48 hr by SRB assay; conditions: SK-OV-3, 48 h
[5] = system: SK-MEL-2; assay: Cytotoxicity against Homo sapiens (human) SK-MEL-2 cells after 48 hr by SRB assay; conditions: SK-MEL-2, 48 h
[6] = system: SN12C; assay: Cytotoxicity against Homo sapiens (human) SN12C cells after 48 hr by SRB assay
[7] = Cytotoxicity against Homo sapiens (human) NCI-H322 cells after 48 hr by SRB assay; conditions: NCI-H322, 48 h
[8] = Cytotoxicity against Homo sapiens (human) non-small cell lung cancer cells after 48 hr by SRB assay; conditions: Cancer cell lines
[9] = Cytotoxicity against Homo sapiens (human) NCI-ADR-RES cells after 48 hr by SRB assay
[10] = Cytotoxicity against Homo sapiens (human) ovarian cancer cells after 48 hr by SRB assay; conditions: Cancer cell lines
[11] = system: HOP-62; assay: Cytotoxicity against Homo sapiens (human) HOP62 cells after 48 hr by SRB assay; conditions: HOP-62, 48 h
[12] = Cytotoxicity against Homo sapiens (human) renal cancer cells after 48 hr by SRB assay; conditions: Cancer cell lines
[13] = system: BT-549; assay: Cytotoxicity against Homo sapiens (human) BT549 cells after 48 hr by SRB assay; conditions: BT-549, 48 h
[14] = system: HCT-15; assay: Cytotoxicity against Homo sapiens (human) HCT15 cells after 48 hr by SRB assay; conditions: HCT-15, 48 h
[15] = system: CAKI-1; assay: Cytotoxicity against Homo sapiens (human) Caki1 cells after 48 hr by SRB assay; conditions: CAKI-1, 48 h
[16] = system: IGROV-1; assay: Cytotoxicity against Homo sapiens (human) IGROV1 cells after 48 hr by SRB assay; conditions: IGROV-1, 48 h
[17] = system: OVCAR-4; assay: Cytotoxicity against Homo sapiens (human) OVCAR4 cells after 48 hr by SRB assay; conditions: OVCAR-4, 48 h
[18] = system: NCI-H522; assay: Cytotoxicity against Homo sapiens (human) NCI-H522 cells after 48 hr by SRB assay; conditions: NCI-H522, 48 h
[19] = system: KM12; assay: Cytotoxicity against Homo sapiens (human) KM12 cells after 48 hr by SRB assay; conditions: KM12, 48 h
[20] = Cytotoxicity against Homo sapiens (human) leukemia cells after 48 hr by SRB assay; conditions: Leukemia cell
[21] = system: RPMI-8226; assay: Cytotoxicity against Homo sapiens (human) RPMI8226 cells after 48 hr by SRB assay; conditions: RPMI-8226, 48 h
[22] = Cytotoxicity against Homo sapiens (human) breast cancer cells after 48 hr by SRB assay; conditions: Cancer cell lines
[23] = system: MDA-MB-231; assay: Cytotoxicity against Homo sapiens (human) MDA-MB-231 cells after 48 hr by SRB assay; conditions: MDA-MB-231, 48 h
[24] = system: EKVX; assay: Cytotoxicity against Homo sapiens (human) EKVX cells after 48 hr by SRB assay
[25] = system: A549; assay: Cytotoxicity against Homo sapiens (human) A549 cells after 48 hr by SRB assay; conditions: A549, 48 h
[26] = system: MCF7; assay: Cytotoxicity against Homo sapiens (human) MCF7 cells after 48 hr by SRB assay; conditions: MCF7, 48 h
[27] = system: OVCAR-3; assay: Cytotoxicity against Homo sapiens (human) OVCAR3 cells after 48 hr by SRB assay; conditions: OVCAR-3, 48 h
[28] = system: HCC 2998; assay: Cytotoxicity against Homo sapiens (human) HCC2998 cells after 48 hr by SRB assay; conditions: HCC 2998, 48 h
[29] = system: Hs-578T; assay: Cytotoxicity against Homo sapiens (human) Hs578T cells after 48 hr by SRB assay
[30] = system: T47D; assay: Cytotoxicity against Homo sapiens (human) T47D cells after 48 hr by SRB assay
[31] = system: HT-29; assay: Cytotoxicity against Homo sapiens (human) HT-29 cells after 48 hr by SRB assay; conditions: HT-29, 48 h
[32] = system: UACC-62; assay: Cytotoxicity against Homo sapiens (human) UACC62 cells after 48 hr by SRB assay; conditions: UACC-62, 48 h
[33] = system: SW-620; assay: Cytotoxicity against Homo sapiens (human) SW620 cells after 48 hr by SRB assay; conditions: SW-620, 48 h
[34] = Cytotoxicity against Homo sapiens (human) prostate cancer cells after 48 hr by SRB assay; conditions: Cancer cell lines
[35] = system: 786-0; assay: Cytotoxicity against Homo sapiens (human) 786-0 cells after 48 hr by SRB assay; conditions: 786-0, 48 h
[36] = system: M14; assay: Cytotoxicity against Homo sapiens (human) M14 cells after 48 hr by SRB assay; conditions: M14, 48 h
[37] = system: RXF 393; assay: Cytotoxicity against Homo sapiens (human) RXF393 cells after 48 hr by SRB assay; conditions: RXF 393, 48 h
[38] = system: SNB-75; assay: Cytotoxicity against Homo sapiens (human) SNB75 cells after 48 hr by SRB assay; conditions: SNB-75, 48 h
[39] = Cytotoxicity against Homo sapiens (human) melanoma cells after 48 hr by SRB assay; conditions: Melanoma cell
[40] = system: SF-268; assay: Cytotoxicity against Homo sapiens (human) SF268 cells assessed as cellular growth after 48 hr by Alamar blue assay; set-up: concentration or dose not given beside the values
[41] = system: MCF7; assay: Cytotoxicity against Homo sapiens (human) MCF7 cells assessed as cellular growth after 48 hr by Alamar blue assay; set-up: concentration or dose not given beside the values
[42] = system: U-251; assay: Cytotoxicity against Homo sapiens (human) U251 cells after 48 hr by SRB assay; conditions: U-251, 48 h
[43] = system: UO-31; assay: Cytotoxicity against Homo sapiens (human) UO31 cells after 48 hr by SRB assay; conditions: UO-31, 48 h
[44] = system: SF-295; assay: Cytotoxicity against Homo sapiens (human) SF295 cells after 48 hr by SRB assay; conditions: SF-295, 48 h
[45] = system: NCI-H23; assay: Cytotoxicity against Homo sapiens (human) NCI-H23 cells after 48 hr by SRB assay; conditions: NCI-H23, 48 h
[46] = system: NCI-H460; assay: Cytotoxicity against Homo sapiens (human) NCI-H460 cells after 48 hr by SRB assay; conditions: NCI-H460, 48 h
[47] = system: SF-539; assay: Cytotoxicity against Homo sapiens (human) SF539 cells after 48 hr by SRB assay; conditions: SF-539, 48 h

## NS(=O)(=O)c1ccc(-n2nc3c(c2-c2cccs2)Cc2ccccc2-3)cc1
[1]
  GI50: 23.2 µM
[2]
  GI50: 18.5 µM
[3]
  Activity: <=32%
[4]
  GI50: 37.7 µM
[5]
  GI50: 27.6 µM
[6]
  GI50: 12.2 µM
[7]
  GI50: 11.9 µM
[8]
  GI50: 21.7 µM
  TGI: 31.3 µM
[9]
  GI50: 12.4 µM
[10]
  GI50: 20.6 µM
  TGI: 37.3 µM
[11]
  GI50: 16.5 µM
[12]
  GI50: 13.3 µM
  TGI: 29.7 µM
[13]
  GI50: 12.4 µM
[14]
  GI50: 12 µM
[15]
  GI50: 10.1 µM
[16]
  GI50: 2490 nM
[17]
  GI50: 29.9 µM
[18]
  GI50: 12.4 µM
[19]
  GI50: 13.5 µM
[20]
  GI50: 3.3 µM
  TGI: 15.7 µM
[21]
  GI50: 6.68 µM
[22]
  GI50: 26.1 µM
  TGI: 34.7 µM
[23]
  GI50: 17.3 µM
[24]
  GI50: 11.9 µM
[25]
  GI50: 20.7 µM
[26]
  GI50: > 100 µM
[27]
  GI50: 14.4 µM
[28]
  GI50: 12.8 µM
[29]
  GI50: 16.1 µM
[30]
  GI50: 12.8 µM
[31]
  GI50: 22.9 µM
[32]
  GI50: 11.5 µM
[33]
  GI50: 10.7 µM
[34]
  GI50: 22.3 µM
  TGI: 22.3 µM
[35]
  GI50: 17.1 µM
[36]
  GI50: 17.2 µM
[37]
  GI50: 17.4 µM
[38]
  GI50: 25.5 µM
[39]
  GI50: 17.5 µM
  TGI: 38.9 µM
[40]
  Activity: <=32%
[41]
  Activity: <=32%
[42]
  GI50: 12.3 µM
[43]
  GI50: 12.2 µM
[44]
  GI50: 13.8 µM
[45]
  GI50: 11.9 µM
[46]
  GI50: > 100 µM
[47]
  GI50: 21.1 µM
